Laboratory results from patent US20160318987A1 (MEDIMMUNE LIMITED, priority 2013, published 2016).
Read-outs that look alike come from different tables or passages of the source. *1 amine or outer side, *2 acyl side, *3 side chain or, on linkers, in order; H or OH if unused. Where a SMILES comes first, the peptide text is derived from it. Primed or numbered codes have the meaning given here. Where no end group is shown, it is not given here. Side-chain parts run from the residue outwards. [ ]: non-standard residue; d: D form. The star is where a group is joined. Palmitoyl(16-(5-tetrazolyl)) = O=C(CCCCCCCCCCCCCCCc1nnn[nH]1)*; γGlu = O=C(O)[C@H](CCC(=O)[*:2])N[*:1]; Palmitoyl = CCCCCCCCCCCCCCCC(=O)*; αMeF = C[C@](N)(Cc1ccccc1)C(=O)O; αMeK = C[C@](N)(CCCCN)C(=O)O; αMeV = CC(C)[C@](C)(N)C(=O)O; PEG2′ = not defined here; Aib = CC(C)(N)C(=O)O

Legend:
[1] = biological target: T1, hGLP-1R (Homo sapiens, UniProt P43220); assay: cAMP functional assay, cells expressing human GLP-1 receptor (primary assay); type: cell-based; settings: n = 2
T1 construct: expressed in transfected cells

[2] = biological target: T2, hGIP-R (Homo sapiens, UniProt P48546); assay: cAMP functional assay, cells expressing human GIP receptor (primary assay); type: cell-based; settings: n = 2
T2 construct: expressed in transfected cells
T2 sequence (P48546 22-466): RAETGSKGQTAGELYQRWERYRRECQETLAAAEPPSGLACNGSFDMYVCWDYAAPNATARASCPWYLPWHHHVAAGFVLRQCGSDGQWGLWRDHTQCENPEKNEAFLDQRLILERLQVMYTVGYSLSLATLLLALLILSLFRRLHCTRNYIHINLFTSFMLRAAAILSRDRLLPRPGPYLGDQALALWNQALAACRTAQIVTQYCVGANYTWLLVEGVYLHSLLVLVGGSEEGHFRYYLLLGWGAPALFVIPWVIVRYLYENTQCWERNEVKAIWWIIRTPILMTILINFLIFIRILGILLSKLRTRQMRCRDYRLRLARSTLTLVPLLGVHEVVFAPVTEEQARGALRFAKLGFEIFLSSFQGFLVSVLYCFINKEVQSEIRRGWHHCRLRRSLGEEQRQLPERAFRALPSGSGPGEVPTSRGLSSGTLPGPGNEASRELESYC

[3] = biological target: T3, Chymotrypsin (rhCTRC) (Homo sapiens, UniProt Q99895); assay: chymotrypsin stability study (LC/MS); type: in vitro ADME; settings: Table 2 description
T3 construct: purchased R&D Systems 6907-SE-010
T3 sequence (Q99895 30-268): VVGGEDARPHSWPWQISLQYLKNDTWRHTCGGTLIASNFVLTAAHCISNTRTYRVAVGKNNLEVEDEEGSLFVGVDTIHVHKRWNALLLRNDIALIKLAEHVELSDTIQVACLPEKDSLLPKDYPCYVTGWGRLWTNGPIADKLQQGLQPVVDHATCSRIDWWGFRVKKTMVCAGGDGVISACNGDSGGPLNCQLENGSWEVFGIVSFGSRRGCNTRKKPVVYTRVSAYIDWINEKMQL
Protocol: (§1) Peptides for evaluation were prepared to a concentration of 1.0 mg/mL solutions in either pure water, sterile saline for injection (0.9% w/v NaCl/water) or 1× PBS (Dulbecco). 100 μL (100 μg/mL peptide) of these solutions was added to 900 μL of each protease solution. Additional experiments were performed examining protein degradation during exposure to serum and gastric fluid. For serum studies, peptides were incubated with 50% female Sprague-Dawley strain rat serum (SD rat serum). For gastric fluid studies, peptides were incubated 1:1 (volume:volume), fresh rat gastric fluid.
(§2) The peptide and enzyme (or serum or gastric fluid) were co-incubated in a temperature regulated water bath at 37° C. for the duration of the experiment. During each experiment 100 μL aliquots (10 μg peptide) of the incubated peptide-enzyme mixture were withdrawn periodically, quenched by addition of an equal volume of 5% TFA (v/v) in 1:1 water/acetonitrile to arrest proteolytic activity, and analyzed by liquid chromatography-mass spectrometry (LC/MS): Agilent Polaris C8-A column (4.6×100 mm, 3 micron) using a linear binary gradient of 10-90% MeCN (0.1% TFA v/v) in water (0.1% TFA v/v) over 30 minutes at 1.5 mL min^−1 at ambient temperature. Analytes were detected by both UV absorption at 210 nm and ionization using a Waters 3100 mass detector (ESI^+ mode). New peptidic species (fragments) derived from enzymatic cleavage of peptides were analyzed post-process, and their molecular masses were used to identify the precise cleavage position (highlighting the scissile bond in each case).

[4] = test system: DPP-IV, Neprilysin, Chymotrypsin, Trypsin, Pepsin; assay: enzyme resistance, protease panel (Table 2 description); type: in vitro ADME
Protocol: as §1, §2

[5] = biological target: T4, hGluc-R (Homo sapiens, UniProt P47871); assay: cAMP functional assay, cells expressing human glucagon receptor (primary assay); type: cell-based; settings: n = 2
T4 construct: expressed in transfected cells
T4 sequence (P47871 26-477): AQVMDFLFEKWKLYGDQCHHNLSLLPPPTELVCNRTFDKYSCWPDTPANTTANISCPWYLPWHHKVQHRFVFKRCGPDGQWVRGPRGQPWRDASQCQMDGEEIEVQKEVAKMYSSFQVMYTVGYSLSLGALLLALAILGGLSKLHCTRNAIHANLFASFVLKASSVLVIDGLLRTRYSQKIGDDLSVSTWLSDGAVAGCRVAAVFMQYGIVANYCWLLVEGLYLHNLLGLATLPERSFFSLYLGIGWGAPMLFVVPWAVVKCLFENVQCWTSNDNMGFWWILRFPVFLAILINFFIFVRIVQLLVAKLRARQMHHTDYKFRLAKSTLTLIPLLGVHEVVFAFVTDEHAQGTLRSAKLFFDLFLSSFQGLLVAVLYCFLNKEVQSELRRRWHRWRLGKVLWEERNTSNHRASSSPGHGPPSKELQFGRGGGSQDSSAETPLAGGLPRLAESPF

T1 sequence (P43220 24-463): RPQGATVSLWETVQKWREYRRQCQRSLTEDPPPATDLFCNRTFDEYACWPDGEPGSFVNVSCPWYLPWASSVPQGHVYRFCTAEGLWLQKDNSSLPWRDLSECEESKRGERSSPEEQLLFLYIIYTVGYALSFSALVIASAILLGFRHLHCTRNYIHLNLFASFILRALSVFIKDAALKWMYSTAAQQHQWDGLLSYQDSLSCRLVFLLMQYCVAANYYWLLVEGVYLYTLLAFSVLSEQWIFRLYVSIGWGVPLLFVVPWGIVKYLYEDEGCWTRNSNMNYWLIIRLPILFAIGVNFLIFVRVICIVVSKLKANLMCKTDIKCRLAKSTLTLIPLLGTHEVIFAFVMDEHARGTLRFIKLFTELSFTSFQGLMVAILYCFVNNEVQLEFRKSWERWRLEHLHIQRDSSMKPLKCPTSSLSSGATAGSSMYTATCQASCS

EC50 [1] [nM]	EC50 [2] [nM]	Chymotrypsin cleavage/liability (Discussion / Description) [3]	enzyme resistance (DPP-IV, Neprilysin, Chymotrypsin, Trypsin, Pepsin) [4]	EC50 [5] [nM]	EC50 ([1]; read-out: Primary assay EC50 (n = 2) hGLP-1R) [nM]	Compound
0.218	89.8	–	Excellent enzyme resistance	89.8	–	CCCCCCCCCCCCCCCC(=O)N[C@@H](CCC(=O)NCCCC[C@H](NC(=O)CNC(=O)CNC(=O)[C@](C)(CCCCN)NC(=O)[C@@H](NC(=O)[C@@H](NC(=O)[C@](C)(Cc1ccccc1)NC(=O)[C@H](C)NC(=O)[C@@H](NC(=O)[C@](C)(Cc1ccccc1)NC(=O)[C@H](CCC(=O)O)NC(=O)[C@](C)(CCCCN)NC(=O)[C@H](C)NC(=O)[C@H](C)NC(=O)[C@H](CCC(=O)O)NC(=O)CNC(=O)[C@H](CCC(=O)O)NC(=O)[C@H](CC(C)C)NC(=O)[C@](C)(Cc1ccccc1)NC(=O)[C@H](CO)NC(=O)[C@H](CO)NC(=O)[C@@H](NC(=O)[C@H](CC(=O)O)NC(=O)[C@H](CO)NC(=O)[C@@H](NC(=O)[C@](C)(Cc1ccccc1)NC(=O)[C@H](CO)NC(=O)CNC(=O)[C@H](CCC(=O)O)NC(=O)C(C)(C)NC(=O)[C@@H](N)Cc1c[nH]cn1)[C@@H](C)O)C(C)C)[C@@H](C)CC)C(C)C)C(C)C)C(N)=O)C(=O)O [SEQ ID NO: 59, H-(Aib)^2-EG-(S)^5-(α-MeF)^6-TSDV^10 SS-(α-MeF)^13-LE^15 G-(E)^17-AA-(α-MeK)^20 E-(α-MeF)^22-IA-(α-MeF)^25-(V)^26-V-(α-MeK)^28-G-(G)^30-K(Ε-γ-E-Palm)] (H-H[Aib]EGS[αMeF]TSDVSS[αMeF]LEGEAA[αMeK]E[αMeF]IA[αMeF]VV[αMeK]GGK([γGlu-Palmitoyl])-NH2)
0.0212	104	–	Excellent enzyme resistance	66.3	–	CC[C@H](C)[C@H](NC(=O)[C@](C)(Cc1ccccc1)NC(=O)[C@H](CCC(=O)O)NC(=O)[C@](C)(CCCCN)NC(=O)[C@H](C)NC(=O)[C@H](C)NC(=O)[C@H](CCC(=O)O)NC(=O)CNC(=O)[C@H](CCC(=O)O)NC(=O)[C@H](CC(C)C)NC(=O)[C@](C)(Cc1ccccc1)NC(=O)[C@H](CO)NC(=O)[C@H](CO)NC(=O)[C@@H](NC(=O)[C@H](CC(=O)O)NC(=O)[C@H](CO)NC(=O)[C@@H](NC(=O)[C@](C)(Cc1ccccc1)NC(=O)[C@H](CO)NC(=O)CNC(=O)[C@H](CCC(=O)O)NC(=O)C(C)(C)NC(=O)[C@@H](N)Cc1c[nH]cn1)[C@@H](C)O)C(C)C)C(=O)N[C@@H](C)C(=O)N[C@@](C)(Cc1ccccc1)C(=O)N[C@H](C(=O)N[C@H](C(=O)N[C@@](C)(CCCCN)C(=O)NCC(=O)NCC(N)=O)C(C)C)C(C)C [SEQ ID NO: 60, H-(Aib)^2-EG-(S)^5-(α-MeF)^6-TSDV^10 SS-(α-MeF)^13-LE^15 G-(E)^17-AA-(α-MeK)^20 E-(α-MeF)^22-IA-(α-MeF)^25-(V)^26-V-(α-MeK)^28-G-(G)^30]
0.034	99.7	–	Excellent enzyme resistance	30.4	–	CC[C@H](C)[C@H](NC(=O)[C@](C)(Cc1ccccc1)NC(=O)[C@H](CCC(=O)O)NC(=O)[C@](C)(CCCCN)NC(=O)[C@H](C)NC(=O)[C@H](C)NC(=O)[C@H](CCC(=O)O)NC(=O)CNC(=O)[C@H](CCC(=O)O)NC(=O)[C@H](CC(C)C)NC(=O)[C@](C)(Cc1ccccc1)NC(=O)[C@H](CO)NC(=O)[C@H](CO)NC(=O)[C@@H](NC(=O)[C@H](CC(=O)O)NC(=O)[C@H](CO)NC(=O)[C@@H](NC(=O)[C@](C)(Cc1ccccc1)NC(=O)[C@H](CO)NC(=O)CNC(=O)[C@H](CCC(=O)O)NC(=O)C(C)(C)NC(=O)[C@@H](N)Cc1c[nH]cn1)[C@@H](C)O)C(C)C)C(=O)N[C@@H](C)C(=O)N[C@@](C)(Cc1ccccc1)C(=O)N[C@H](C(=O)N[C@H](C(=O)N[C@@](C)(CCCCN)C(=O)NCC(=O)NCC(=O)N[C@@H](CCCCN)C(N)=O)C(C)C)C(C)C [SEQ ID NO: 61, H-(Aib)^2-EG-(S)^5-(α-MeF)^6-TSDV^10 SS-(α-MeF)^13-LE^15 G-(E)^17-AA-(α-MeK)^20 E-(α-MeF)^22-IA-(α-MeF)^25-(V)^26-V-(α-MeK)^28-G-(G)^30-(K)^31] (H-H[Aib]EGS[αMeF]TSDVSS[αMeF]LEGEAA[αMeK]E[αMeF]IA[αMeF]VV[αMeK]GGK-NH2)

Second part, the compound before the results:

Compound	EC50 [1] [nM]	EC50 [2] [nM]	Chymotrypsin cleavage/liability (Discussion / Description) [3]	enzyme resistance (DPP-IV, Neprilysin, Chymotrypsin, Trypsin, Pepsin) [4]	EC50 [5] [nM]	EC50 ([1]; read-out: Primary assay EC50 (n = 2) hGLP-1R) [nM]
CC[C@H](C)[C@H](NC(=O)[C@](C)(Cc1ccccc1)NC(=O)[C@H](CCC(=O)O)NC(=O)[C@H](CCCCN)NC(=O)[C@H](C)NC(=O)[C@H](C)NC(=O)[C@H](CCC(N)=O)NC(=O)CNC(=O)[C@H](CCC(=O)O)NC(=O)[C@H](CC(C)C)NC(=O)[C@](C)(Cc1ccccc1)NC(=O)[C@H](CO)NC(=O)[C@H](CO)NC(=O)[C@@H](NC(=O)[C@H](CC(=O)O)NC(=O)[C@H](CO)NC(=O)[C@@H](NC(=O)[C@](C)(Cc1ccccc1)NC(=O)[C@H](CO)NC(=O)CNC(=O)[C@H](CCC(=O)O)NC(=O)C(C)(C)NC(=O)[C@@H](N)Cc1c[nH]cn1)[C@@H](C)O)C(C)C)C(=O)N[C@@H](C)C(=O)N[C@@](C)(Cc1ccccc1)C(=O)N[C@@H](CC(C)C)C(=O)N[C@](C)(C(=O)N[C@@H](CCCCN)C(=O)NCC(=O)N[C@@H](CCCNC(=N)N)C(N)=O)C(C)C [SEQ ID NO: 41, H-(Aib)^2-EG-(S)^5-(α-MeF)^6-TSDV^10 SS-(α-MeF)^13-LE^15 GQAAK^20 E-(α-MeF)^22-IA-(α-MeF)^25 L-(α-MeV)^27-KGR^30] (H-H[Aib]EGS[αMeF]TSDVSS[αMeF]LEGQAAKE[αMeF]IA[αMeF]L[αMeV]KGR-NH2)	0.0546	102	MeVal^27 overcomes	–	–	–
H-(Aib)^2-EG-(S)^5-(α-MeF)^6-TSDV^10 SS-(α-MeF)^13-LE^15 GQAA-(α-MeK)^20 E-(α-MeF)^22-IA-(α-MeF)^25-(V)^26-V-(α-MeK)^28-G-(G)^30-K(Ε-Tetrazolylpalm) (H[Aib]EGS[αMeF]TSDVSS[αMeF]LEGQAA[αMeK]E[αMeF]IA[αMeF]VV[αMeK]GGK(Palmitoyl(16-(5-tetrazolyl))); not fully specified (C-terminus); printed as H-(Aib)^2-EG-(S)^5-(α-MeF)^6-TSDV^10 SS-(α-MeF)^13-LE^15 GQAA-(α-MeK)^20 E-(α-MeF)^22-IA-(α-MeF)^25-(V)^26-V-(α-MeK)^28-G-(G)^30-K(Ε-Tetrazolylpalm)) [SEQ ID NO: 53]	–	–	–	Excellent enzyme resistance	–	0.0451
H-(Aib)^2-EG-(S)^5-(α-MeF)^6-TSDV^10 SS-(α-MeF)^13-LE^15 GQAA-(α-MeK)^20 E-(α-MeF)^22-IA-(α-MeF)^25-(V)^26-V-(α-MeK)^28-G-(G)^30-K(Ε-γ-E-(PEG)^2-Tetrazolylpalm) (H[Aib]EGS[αMeF]TSDVSS[αMeF]LEGQAA[αMeK]E[αMeF]IA[αMeF]VV[αMeK]GGK([γGlu-PEG2′-Palmitoyl(16-(5-tetrazolyl))]); not fully specified; printed as H-(Aib)^2-EG-(S)^5-(α-MeF)^6-TSDV^10 SS-(α-MeF)^13-LE^15 GQAA-(α-MeK)^20 E-(α-MeF)^22-IA-(α-MeF)^25-(V)^26-V-(α-MeK)^28-G-(G)^30-K(Ε-γ-E-(PEG)^2-Tetrazolylpalm)) [SEQ ID NO: 56]	–	–	–	Excellent enzyme resistance	–	–
